Test results published in US7732449B2, “Inhibitors of cathepsin S” (IRM LLC, priority 2003, dated 2010).
Where two headings read alike, the source gives them in different places.

Experiments:
Assay type in all cases: biochemical
Cathepsin K = target: T1, Cathepsin K (Homo sapiens, UniProt P43235); test: Cathepsin K inhibition, fluorogenic peptide substrate kinetic assay (selectivity); conditions: ratio of cathepsin K inhibition constant to cathepsin S inhibition constant
T1 sequence (P43235 115-329): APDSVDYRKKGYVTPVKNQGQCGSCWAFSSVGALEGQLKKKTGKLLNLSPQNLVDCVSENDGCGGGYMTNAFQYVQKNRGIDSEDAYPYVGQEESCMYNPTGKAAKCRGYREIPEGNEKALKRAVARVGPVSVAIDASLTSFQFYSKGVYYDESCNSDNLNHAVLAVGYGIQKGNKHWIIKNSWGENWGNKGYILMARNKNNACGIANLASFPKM

Cathepsin L = Cathepsin L (Homo sapiens, UniProt P07711); test: Cathepsin L inhibition, fluorogenic peptide substrate kinetic assay (selectivity); conditions: ratio of cathepsin L inhibition constant to cathepsin S inhibition constant
Cathepsin S = Cathepsin S (Homo sapiens, UniProt P25774); test: Cathepsin S inhibition, fluorogenic peptide substrate kinetic assay;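 further: cleavage rate of a coumarin-labelled peptide substrate (50 µM) read as fluorescence increase at Ex 380 nm and Em 450 nm, relative to inhibitor-free control reactions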
Cathepsin B = Cathepsin B (Homo sapiens, UniProt P07858); test: Cathepsin B inhibition, fluorogenic peptide substrate kinetic assay (selectivity); conditions: ratio of cathepsin B inhibition constant to cathepsin S inhibition constant;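 further: value is the cathepsin B inhibition constant divided by the cathepsin S one, each from kinetic fluorescence readings (ex 380 nm, em 450 nm) of a 10 µM coumarin peptide substrate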
[1] = Cathepsin S inhibition constant, pH5.5, 20 minutes preincubation at room temperature, read-out: Ki Cat. S

Cathepsin S, sequence (P25774 115-331, species assumed): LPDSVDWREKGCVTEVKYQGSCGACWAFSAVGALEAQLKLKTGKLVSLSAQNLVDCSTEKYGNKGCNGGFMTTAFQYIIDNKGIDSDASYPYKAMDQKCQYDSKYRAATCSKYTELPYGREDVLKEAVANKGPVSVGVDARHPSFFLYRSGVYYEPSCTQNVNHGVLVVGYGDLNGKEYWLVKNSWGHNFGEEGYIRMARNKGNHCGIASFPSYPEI
Cathepsin L, sequence (P07711 114-333, species assumed): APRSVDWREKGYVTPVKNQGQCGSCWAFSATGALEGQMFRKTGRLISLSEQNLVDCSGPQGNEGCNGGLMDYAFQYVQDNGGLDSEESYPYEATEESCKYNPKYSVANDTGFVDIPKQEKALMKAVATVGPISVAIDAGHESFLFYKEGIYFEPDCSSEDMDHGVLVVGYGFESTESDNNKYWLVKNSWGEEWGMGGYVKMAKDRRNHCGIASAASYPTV

Row | Compound | Selectivity for Cat. S over Cat. K (Cathepsin K) | Selectivity for Cat. S over Cat. L (Cathepsin L) | Ki (Cathepsin S) [µM] | Selectivity for Cat. S over Cat. B (Cathepsin B) | Ki (Cathepsin S; [1]) [µM]
1 | O=C(N[C@H](CNc1ccc(OC(F)(F)F)cc1)C1CC1)[C@@H](CC(=O)N1CCOCC1)c1ccc(C(F)(F)F)cc1 [Example 70, N-[1-(S)-Cyclopropyl-2-(4-trifluoromethoxy-phenylamino)-ethyl]-4-morpholin-4-yl-4-oxo-2-(S)-(4-trifluoromethyl-phenyl)-butyramide] | ++ (++, >100) | ++ (++, >100) | 0.1 to 1 | ++ (++, >100) | –
2 | COc1ccc(NC[C@H](C)NC(=O)[C@H](CC2CCCCC2)NC(=O)N2CCOCC2)cc1 [Example 72, (S,S)-Morpholine-4-carboxylic acid {2-cyclohexyl-1-[2-(4-methoxy-phenylamino)-1-methyl-ethylcarbamoyl]-ethyl}-amide] | ++ (++, >100) | + (+, >10) | – | ++ (++, >100) | < 0.1
3 | COc1ccc(NC[C@H](C)NC(=O)[C@H](CC2CCCC2)NC(=O)N2CCOCC2)cc1 [Example 73, Morpholine-4-carboxylic acid {2-cyclopentyl-1-(S)-[2-(4-methoxy-phenylamino)-1-(S)-methyl-ethylcarbamoyl]-ethyl}-amide] | + (+, >10) | + (+, >10) | – | ++ (++, >100) | < 0.1
4 | Cc1cc(NC[C@H](C)NC(=O)[C@H](CC2CCCCC2)NC(=O)N2CCOCC2)no1 [Example 77, Morpholine-4-carboxylic acid {2-cyclohexyl-1-(S)-[1-(S)-methyl-2-(5-methyl-isoxazol-3-ylamino)-ethylcarbamoyl]-ethyl}-amide] | + (+, >10) | + (+, >10) | – | ++ (++, >100) | 0.1 to 1
5 | C[C@@H](CN1CC(C)(C)c2cc(F)ccc21)NC(=O)[C@H](CC1CCCCC1)NC(=O)N1CCOCC1 [Example 80, (S,S)-Morpholine-4-carboxylic acid {2-cyclohexyl-1-[2-(5-fluoro-3,3-dimethyl-2,3-dihydro-indol-1-yl)-1-methyl-ethylcarbamoyl]-ethyl}-amide] | +++ (+++, >1000) | + (+, >10) | – | +++ (+++, >1000) | < 0.1
6 | CC1(C)CN(C[C@@H](NC(=O)[C@H](CC2CCCCC2)NC(=O)N2CCOCC2)C2CC2)c2ccc(F)cc21 [Example 81, Morpholine-4-carboxylic acid {2-cyclohexyl-1-(S)-[1-(S)-cyclopropyl-2-(5-fluoro-3,3-dimethyl-2,3-dihydro-indol-1-yl)-ethylcarbamoyl]-ethyl}-amide] | ++ (++, >100) | + (+, >10) | – | +++ (+++, >1000) | < 0.1
7 | CC(=O)NS(=O)(=O)c1ccc(NC[C@H](C)NC(=O)O[C@@H](CC2CCCCC2)C(=O)N2CCOCC2)cc1 [Example 89, [2-(4-Acetylsulfamoyl-phenylamino)-1-(S)-methyl-ethyl]-carbamic acid 1-(S)-cyclohexylmethyl-2-morpholin-4-yl-2-oxo-ethyl ester] | + (+, >10) | + (+, >10) | – | + (+, >10) | 1 to 10
8 | Cc1cc(NC[C@H](C)NC(=O)O[C@@H](CC2CCCCC2)C(=O)N2CCOCC2)no1 [Example 91, [1-(S)-Methyl-2-(5-methyl-isoxazol-3-ylamino)-ethyl]-carbamic acid 1-(S)-cyclohexylmethyl-2-morpholin-4-yl-2-oxo-ethyl ester] | + (+, >10) | + (+, >10) | – | + (+, >10) | 1 to 10
9 | CC[C@@H](CN1CC(C)(C)c2cc(F)ccc21)NC(=O)O[C@@H](CC1CCCCC1)C(=O)N1CCOCC1 [Example 92, (S,S)-[1-(5-Fluoro-3,3-dimethyl-2,3-dihydro-indol-1-yl-methyl)-propyl]-carbamic acid 1-cyclohexylmethyl-2-morpholin-4-yl-2-oxo-ethyl ester] | +++ (+++, >1000) | +++ (+++, >1000) | – | +++ (+++, >1000) | < 0.1
10 | CC(=O)N1CCN(C(=O)[C@H](CC2CCCCC2)OC(=O)N[C@@H](C)CN2c3ccc(F)cc3CC2(C)C)CC1 [Example 94, (S,S)-[2-(5-Fluoro-2,2-dimethyl-2,3-dihydro-indol-1-yl)-1-methyl-ethyl]-carbamic acid 2-(4-acetyl-piperazin-1-yl)-1-cyclohexylmethyl-2-oxo-ethyl ester] | + (+, >10) | + (+, >10) | – | + (+, >10) | 1 to 10
11 | C[C@@H](CN1c2ccc(F)cc2CC1(C)C)NC(=O)O[C@@H](CC1CCCCC1)C(=O)N1CCN(S(C)(=O)=O)CC1 [Example 95, [2-(5-Fluoro-2,2-dimethyl-2,3-dihydro-indol-1-yl)-1-(S)-methyl-ethyl]-carbamic acid 1-(S)-cyclohexylmethyl-2-(4-methanesulfonyl-piperazin-1-yl)-2-oxo-ethyl ester] | + (+, >10) | + (+, >10) | – | + (+, >10) | 1 to 10
12 | C[C@@H](CN1c2ccc(F)cc2CC1(C)C)NC(=O)O[C@@H](CC1CCCCC1)C(=O)N1CCSCC1 [Example 96, [2-(5-Fluoro-2,2-dimethyl-2,3-dihydro-indol-1-yl)-1-(S)-methyl-ethyl]-carbamic acid 1-(S)-cyclohexylmethyl-2-oxo-2-thiomorpholin-4-yl-ethyl ester] | + (+, >10) | + (+, >10) | – | + (+, >10) | 1 to 10
13 | CC(C)[C@@H](CN1CC(C)(C)c2cc(F)ccc21)NC(=O)O[C@@H](CS(=O)(=O)Cc1ccccc1)C(=O)N1CCOCC1 [Example 110, [1-(S)-(5-Fluoro-3,3-dimethyl-2,3-dihydro-indol-1-ylmethyl)-2-methyl-propyl]-carbamic acid 2-morpholin-4-yl-2-oxo-1-(R)-phenylmethanesulfonylmethyl-ethyl ester] | + (+, >10) | + (+, >10) | – | + (+, >10) | 1 to 10
14 | CC(C)[C@@H](CN1CC(C)(C)c2cc(F)ccc21)NC(=O)O[C@H](C(=O)N1CCOCC1)C1CCCCC1 [Example 111, [1-(S)-(5-Fluoro-3,3-dimethyl-2,3-dihydro-indol-1-ylmethyl)-2-methyl-propyl]-carbamic acid 1-(S)-cyclohexyl-2-morpholin-4-yl-2-oxo-ethyl ester] | + (+, >10) | ++ (++, >100) | – | +++ (+++, >1000) | < 0.1
